According to patent US20090215710A1, “CARBOHYDRATE BASED TOLL-LIKE RECEPTOR (TLR) ANTAGONISTS” (RELIANCE LIFE SCIENCES PVT. LTD., priority 2007, published 2009):

Columns and labels:
[1] = system: TNF; experiment: Pre-screen for TNF inhibition activity of synthesized molecules (Table 1); assay type: cell-based
[2] = Cell viability in pre-screen (Table 1); assay type: cell-based

In the case of `COc1ccc(O[C@@H]2O[C@@H]3COC(c4ccccc4)O[C@H]3[C@H](O)[C@H]2O)cc1` (stereo partly drawn) [RSCL-0370, 1-O-(p-Methoxyphenyl)-4,6-O-benzylidene-β-D-glucopyranoside], the “% TNF Inhibition” value ([1]; 1 uM) is reported as 0%, the “% TNF Inhibition” value ([1]; 10 uM) is reported as 0% and the “% TNF Inhibition” value ([1]; 50 uM) is reported as 0%. The “% TNF Inhibition” value ([1]; 100 uM) was 16%, the “% Viability” value ([2]; 1 uM) was 115% and the “% Viability” value ([2]; 10 uM) was 120%. For the same compound, the “% Viability” value ([2]; 50 uM) was 108% and the “% Viability” value ([2]; 100 uM) was 107%.

For `COc1ccc(O[C@H]2O[C@@H]3COC(c4ccccc4)O[C@H]3[C@H](O[C@@H]3O[C@H](CO)[C@@H](O)[C@H](OC(C)=O)[C@H]3OC(C)=O)[C@H]2NC(=O)C(Cl)(Cl)Cl)cc1` (stereo partly drawn) [RSCL-0628, p-Methoxy phenyl-O-(2,3-di-O-acetyl-β-D-glucopyranosyl)-(1-3)-2-deoxy-2-trichloroacetamido-4,6-O-benzylidene-α-D-glucopyranoside], the “% TNF Inhibition” value ([1]; 1 uM) was 0%, the “% TNF Inhibition” value ([1]; 10 uM) was 92% and the “% TNF Inhibition” value ([1]; 50 uM) was 102%. The “% TNF Inhibition” value ([1]; 100 uM) was 100%, the “% Viability” value ([2]; 1 uM) was 89% and the “% Viability” value ([2]; 10 uM) was 60%. The “% Viability” value ([2]; 50 uM) was 10% and the “% Viability” value ([2]; 100 uM) was 8%.

For `COc1ccc(O[C@H]2O[C@@H]3COC(c4ccccc4)O[C@H]3[C@H](O[C@@H]3O[C@H](COC(=O)CCC(C)=O)[C@@H](O)[C@H](OC(C)=O)[C@H]3OC(C)=O)[C@H]2NC(=O)C(Cl)(Cl)Cl)cc1` (stereo partly drawn) [RSCL-0440, p-Methoxy phenyl-O-(2,3-di-O-acetyl-6-O-levulinoyl-β-D-glucopyranosyl)-(1-3)-2-deoxy-2-trichloroacetamido-4,6-O-benzylidene-α D-glucopyranoside], the “% TNF Inhibition” value ([1]; 1 uM) was 34%, the “% TNF Inhibition” value ([1]; 10 uM) was 42% and the “% TNF Inhibition” value ([1]; 50 uM) was 46%. The “% TNF Inhibition” value ([1]; 100 uM) was 47%, the “% Viability” value ([2]; 1 uM) was 114% and the “% Viability” value ([2]; 10 uM) was 115%. The “% Viability” value ([2]; 50 uM) was 129% and the “% Viability” value ([2]; 100 uM) was 119%.

In the case of `COc1ccc(O[C@@H]2O[C@H](COC(=O)CCC(C)=O)[C@@H](OC(=O)CCl)[C@H](OC(C)=O)[C@H]2OC(C)=O)cc1` [RSCL-0393, 1-O-(p-Methoxyphenyl)-2,3-di-O-acetyl-4-O-chloroacetyl-6-O-levulinoyl-β-D-glucopyranoside], the “% TNF Inhibition” value ([1]; 1 uM) is reported as 2%, the “% TNF Inhibition” value ([1]; 10 uM) is reported as 13% and the “% TNF Inhibition” value ([1]; 50 uM) is reported as 18%. For the same compound, the “% TNF Inhibition” value ([1]; 100 uM) was 76%, the “% Viability” value ([2]; 1 uM) was 84% and the “% Viability” value ([2]; 10 uM) was 85%. For the same compound, the “% Viability” value ([2]; 50 uM) was 81% and the “% Viability” value ([2]; 100 uM) was 86%.

For `COc1ccc(O[C@H]2O[C@@H]3COC(c4ccccc4)O[C@H]3[C@H](O[C@@H]3O[C@H](COC(=O)CCC(C)=O)[C@@H](OC(C)=O)[C@H](OC(C)=O)[C@H]3OC(C)=O)[C@H]2NC(=O)C(Cl)(Cl)Cl)cc1` (stereo partly drawn) [RSCL-0625, p-Methoxy phenyl-O-(2,3,4-tri-O-acetyl-6-O-levulinoyl-β-D-glucopyranosyl)-(1-3)-2-deoxy-2-trichloroacetamido-4,6-O-benzylidene-α-D-glucopyranoside], the “% TNF Inhibition” value ([1]; 1 uM) was 31%, the “% TNF Inhibition” value ([1]; 10 uM) was 27% and the “% TNF Inhibition” value ([1]; 50 uM) was 22%. The “% TNF Inhibition” value ([1]; 100 uM) was 31%, the “% Viability” value ([2]; 1 uM) was 90% and the “% Viability” value ([2]; 10 uM) was 96%. The “% Viability” value ([2]; 50 uM) was 99% and the “% Viability” value ([2]; 100 uM) was 97%.

For `COc1ccc(O[C@H]2O[C@@H]3COC(c4ccccc4)O[C@H]3[C@H](O[C@@H]3O[C@H](CO)[C@@H](OC(C)=O)[C@H](OC(C)=O)[C@H]3OC(C)=O)[C@H]2NC(=O)C(Cl)(Cl)Cl)cc1` (stereo partly drawn) [RSCL-0626, p-Methoxy phenyl-O-(2,3,4-tri-O-acetyl-β-D-glucopyranosyl)-(1-3)-2-deoxy-2-trichloroacetamido-4,6-O-benzylidene-α-D-glucopyranoside], the “% TNF Inhibition” value ([1]; 1 uM) was 39%, the “% TNF Inhibition” value ([1]; 10 uM) was 43% and the “% TNF Inhibition” value ([1]; 50 uM) was 13%. The “% TNF Inhibition” value ([1]; 100 uM) was 52%, the “% Viability” value ([2]; 1 uM) was 97% and the “% Viability” value ([2]; 10 uM) was 92%. For the same compound, the “% Viability” value ([2]; 50 uM) was 95% and the “% Viability” value ([2]; 100 uM) was 89%.

For “p-Methoxy phenyl-2-deoxy-2-trichloroacetamido-4,6-O-benzylidene-β-D-glucopyranosyl)-(1-4)-O-(2,3-di-O-acetyl-6-O-levulinoyl-β-D-glucopyranoside [RSCL-0635]”, the “% TNF Inhibition” value ([1]; 1 uM) was 0%, the “% TNF Inhibition” value ([1]; 10 uM) was 0% and the “% TNF Inhibition” value ([1]; 50 uM) was 0%. The “% TNF Inhibition” value ([1]; 100 uM) was 0%, the “% Viability” value ([2]; 1 uM) was 97% and the “% Viability” value ([2]; 10 uM) was 89%. The “% Viability” value ([2]; 50 uM) was 82% and the “% Viability” value ([2]; 100 uM) was 81%.

With `COc1ccc(O[C@H]2O[C@@H]3COC(c4ccccc4)O[C@H]3[C@H](O[C@@H]3O[C@H](COC(=O)CCl)[C@@H](OC(C)=O)[C@H](OC(C)=O)[C@H]3OC(C)=O)[C@H]2NC(=O)C(Cl)(Cl)Cl)cc1` (stereo partly drawn) [RSCL-0630, p-Methoxy phenyl-O-(2,3,4-tri-O-acetyl-6-O-chloroacetyl-β-D-glucopyranosyl)-(1-3)-2-deoxy-2-trichloroacetamido-4,6-O-benzylidene-α-D-glucopyranoside] the “% TNF Inhibition” value ([1]; 1 uM) was 31%, the “% TNF Inhibition” value ([1]; 10 uM) was 36% and the “% TNF Inhibition” value ([1]; 50 uM) was 61%. The “% TNF Inhibition” value ([1]; 100 uM) was 0%, the “% Viability” value ([2]; 1 uM) was 95% and the “% Viability” value ([2]; 10 uM) was 88%. For the same compound, the “% Viability” value ([2]; 50 uM) was 85% and the “% Viability” value ([2]; 100 uM) was 81%.

With `COc1ccc(O[C@H]2O[C@@H]3COC(c4ccccc4)O[C@H]3[C@H](O)[C@H]2NC(=O)C(Cl)(Cl)Cl)cc1` (stereo partly drawn) [RSCL-0400, 1-O-(p-Methoxyphenyl)-2-deoxy-2-trichloroacetamido-4,6-O-benzylidene-α-D-glucopyranoside] the “% TNF Inhibition” value ([1]; 1 uM) was 0%, the “% TNF Inhibition” value ([1]; 10 uM) was 0% and the “% TNF Inhibition” value ([1]; 50 uM) was 0%. The “% TNF Inhibition” value ([1]; 100 uM) was 0%, the “% Viability” value ([2]; 1 uM) was 93% and the “% Viability” value ([2]; 10 uM) was 82%. The “% Viability” value ([2]; 50 uM) was 70% and the “% Viability” value ([2]; 100 uM) was 63%.

In the case of `COc1ccc(O[C@H]2O[C@@H]3COC(c4ccccc4)O[C@H]3[C@H](O[C@@H]3O[C@H](COC(=O)CCC(C)=O)[C@@H](OS(=O)(=O)O)[C@H](OC(C)=O)[C@H]3OC(C)=O)[C@H]2NC(=O)C(Cl)(Cl)Cl)cc1` (stereo partly drawn) [RSCL-0621, p-Methoxy phenyl-O-(2,3-di-O-acetyl-4-O-sulfo-6-O-levulinoyl-β-D-glucopyranosyl)-(1-3)-2-deoxy-2-trichloroacetamido-4,6-O-benzylidene-α-D-glucopyranoside], the “% TNF Inhibition” value ([1]; 1 uM) is reported as 36%, the “% TNF Inhibition” value ([1]; 10 uM) is reported as 38% and the “% TNF Inhibition” value ([1]; 50 uM) is reported as 49%. The “% TNF Inhibition” value ([1]; 100 uM) was 66%, the “% Viability” value ([2]; 1 uM) was 90% and the “% Viability” value ([2]; 10 uM) was 95%. For the same compound, the “% Viability” value ([2]; 50 uM) was 98% and the “% Viability” value ([2]; 100 uM) was 96%.

For “2,3-Di-O-acetyl-4-O-chloroacetyl-6-O-levulinoyl-β-D-glucopyranosyl)-(1-3)-2-deoxy-2-trichloroacetamido-α/β-D-glucopyranoside [RSCL-0632]”, the “% TNF Inhibition” value ([1]; 1 uM) was 0%, the “% TNF Inhibition” value ([1]; 10 uM) was 0% and the “% TNF Inhibition” value ([1]; 50 uM) was 0%. The “% TNF Inhibition” value ([1]; 100 uM) was 30%, the “% Viability” value ([2]; 1 uM) was 115% and the “% Viability” value ([2]; 10 uM) was 113%. For the same compound, the “% Viability” value ([2]; 50 uM) was 94% and the “% Viability” value ([2]; 100 uM) was 84%.

For `CC(=O)CCC(=O)OC[C@H]1O[C@@H](O[C@H]2[C@@H]3OC(c4ccccc4)OC[C@H]3OC(O)[C@@H]2NC(=O)C(Cl)(Cl)Cl)[C@H](OC(C)=O)[C@@H](OC(C)=O)[C@@H]1OC(=O)CCl` (stereo partly drawn) [RSCL-0627, 2,3-Di-O-acetyl-4-O-chloroacetyl-6-O-levulinoyl-β-D-glucopyranosyl-(1-3)-2-deoxy-2-trichloroacetamido-4,6-O-benzylidene-α/β-D-glucopyranoside], the “% TNF Inhibition” value ([1]; 1 uM) was 0%, the “% TNF Inhibition” value ([1]; 10 uM) was 80% and the “% TNF Inhibition” value ([1]; 50 uM) was 104%. For the same compound, the “% TNF Inhibition” value ([1]; 100 uM) was 100%, the “% Viability” value ([2]; 1 uM) was 105% and the “% Viability” value ([2]; 10 uM) was 90%. The “% Viability” value ([2]; 50 uM) was 33% and the “% Viability” value ([2]; 100 uM) was 13%.

With `COc1ccc(O[C@@H]2O[C@H](COC(C)=O)[C@@H](OC(C)=O)[C@H](OC(C)=O)[C@H]2OC(C)=O)cc1` [RSCL-0367, 1-O-(p-Methoxyphenyl)-2,3,4,6-tetra-O-acetyl-β-D-Glucopyranoside] the “% TNF Inhibition” value ([1]; 1 uM) was 0%, the “% TNF Inhibition” value ([1]; 10 uM) was 0% and the “% TNF Inhibition” value ([1]; 50 uM) was 0%. The “% TNF Inhibition” value ([1]; 100 uM) was 0%, the “% Viability” value ([2]; 1 uM) was 114% and the “% Viability” value ([2]; 10 uM) was 118%. For the same compound, the “% Viability” value ([2]; 50 uM) was 105% and the “% Viability” value ([2]; 100 uM) was 116%.

In the case of `COc1ccc(O[C@H]2O[C@@H]3COC(c4ccccc4)O[C@H]3[C@H](O[C@@H]3O[C@H](CO)[C@@H](OC(=O)CCl)[C@H](OC(C)=O)[C@H]3OC(C)=O)[C@H]2NC(=O)C(Cl)(Cl)Cl)cc1` (stereo partly drawn) [RSCL-0629, p-Methoxy phenyl-O-(2,3-di-O-acetyl-4-O-chloroacetyl-β-D-glucopyranosyl)-(1-3)-2-deoxy-2-trichloroacetamido-4,6-O-benzylidene-α-D-glucopyranoside], the “% TNF Inhibition” value ([1]; 1 uM) is reported as 0%, the “% TNF Inhibition” value ([1]; 10 uM) is reported as 94% and the “% TNF Inhibition” value ([1]; 50 uM) is reported as 102%. For the same compound, the “% TNF Inhibition” value ([1]; 100 uM) was 100%, the “% Viability” value ([2]; 1 uM) was 99% and the “% Viability” value ([2]; 10 uM) was 57%. The “% Viability” value ([2]; 50 uM) was 13% and the “% Viability” value ([2]; 100 uM) was 11%.

For `COc1ccc(OC2OC3COC(c4ccccc4)OC3C(OC3OC(COC(=O)CCl)C(OC(=O)CCl)C(OC(C)=O)C3OC(C)=O)C2NC(=O)C(Cl)(Cl)Cl)cc1` [RSCL-0631, p-Methoxy phenyl-O-(2,3-di-O-acetyl-4,6-di-O-chloroacetyl-β-D-glucopyranosyl)-(1-3)-2-deoxy-2-trichloroacetamido-4,6-O-benzylidene-α-D-glucopyranoside], the “% TNF Inhibition” value ([1]; 1 uM) was 77%, the “% TNF Inhibition” value ([1]; 10 uM) was 38% and the “% TNF Inhibition” value ([1]; 50 uM) was 92%. The “% TNF Inhibition” value ([1]; 100 uM) was 99%, the “% Viability” value ([2]; 1 uM) was 95% and the “% Viability” value ([2]; 10 uM) was 70%. For the same compound, the “% Viability” value ([2]; 50 uM) was 20% and the “% Viability” value ([2]; 100 uM) was 8%.
